Assay [1] has as its system C42. Briefly: Crystal violet proliferation assay, C42. The following applies: C42, AR positive, 72 h treatment, mean. It counts as cell-based. How it is done:
(§1) Cells were seeded at a density of 2 × 10^4 in 96-well plates and left to adhere overnight before treatment with the inhibitors. After 72 h of treatment, cells were fixed in 2% paraformaldehyde for 1 h, washed 3× with ddH2O and left to dry. 0.04% crystal violet (dissolved in ddH2O) was added to each well and the plates incubated for 1 h. The plates were again washed 3× with ddH2O and left to dry. Crystal violet was solubilised with 10% acetic acid (1 h at room temperature with rocking) and the optical density of each well measured at 570 nm with a plate reader (CLARIOstar, BMG Labtech, Germany).
(§2) (A) The non-tumorigenic controls PNT1A and BPH1, and prostate cancer cell lines LNCaP, C42, C42B, 22RV1, DU145 and PC3 were seeded 24 h before treatment with a dose range of the thieno[2,3-b]pyridine compounds (DJ97, DJ144, DJ145, DJ154 and DJ160). After 72 h of treatment, cells were fixed, stained with crystal violet and absorbance measured using a spectrophotometer microplate reader (FLUOstar Omega) at 490 nm. Mean ± SE of three independent repeats (six replicates for each concentration per experiment). (B) Western blotting was performed on lysates from the different cell lines and membranes probed with antibodies specific for PLCγ1, PLCγ2, AR and ⍺-tubulin. (C) PC3 cells were seeded in 10 cm plates and treated with a dose range of DJ160 for 24 h. Cells were collected and PLC activity measured, and enzymatic activity calculated. Mean of 3 repeats ± SD. TEXT PRINTED IN THE PICTURE: (C) DJ160: PLC activity (mol/min): 0.19 ± 0.005 (DJ160 (μM): 0); PLC activity (mol/min): 0.19 ± 0.005 (DJ160 (μM): 0.01); PLC activity (mol/min): 0.17 ± 0.005 (DJ160 (μM): 0.1); PLC activity (mol/min): 0.23 ± 0.004 (DJ160 (μM): 1); PLC activity (mol/min): 0.22 ± 0.010 (DJ160 (μM): 10)

Assay [2] has as its system PC3. The experiment in a line: Crystal violet proliferation assay, PC3. It counts as cell-based. The following applies: PC3, AR negative, 72 h treatment, mean. As for the experimental part: as §1, §2
Assay [3] relates to LNCaP. The experiment in a line: Crystal violet proliferation assay, LNCaP. It counts as cell-based. The following applies: AR positive, 72 h treatment, mean. As for the experimental part:
as §1, §2

Assay [4] concerns 22RV1. Briefly: Crystal violet proliferation assay, 22RV1. It counts as cell-based. The following applies: Homo sapiens; 22RV1, AR positive; 72 h treatment; mean. As for the experimental part:
as §1, §2

The test system of assay [5] is PNT1A. Briefly: Crystal violet proliferation assay, PNT1A. The format is cell-based. The following applies: Homo sapiens, non-tumorigenic, 72 h treatment, mean. As for the experimental part:
as §1, §2

In assay [6] the test system is BPH1. Briefly: Crystal violet proliferation assay, BPH1. It counts as cell-based. As to conditions: BPH1, non-tumorigenic, 72 h treatment, mean; for IC50: Homo sapiens, BPH-1. How it is done:
as §1, §2

The subject of assay [7] is DU145. Briefly: Crystal violet proliferation assay, DU145. It counts as cell-based. As to conditions: Homo sapiens, DU-145; DU145, AR negative; 72 h treatment; mean. How it is done:
as §1, §2

The subject of assay [8] is C42B. The experiment in a line: Crystal violet proliferation assay, C42B. It counts as cell-based. The following applies: AR positive, 72 h treatment, mean. As for the experimental part: as §1, §2
Assay [9] deals with PC3 cells. The experiment in a line: Cell cycle analysis (PI staining, flow cytometry). It counts as cell-based. As to conditions: 1 μM, 24 h. As for the experimental part: Cells were seeded in 12-well plates, incubated overnight and treated with the inhibitors. The cells were incubated for 72 h before harvesting. Cells were pelleted (200 g, 5 min) and washed with PBS. The wash was removed and cells fixed with 70% EtOH, added dropwise with agitation. The cells were incubated at 4°C overnight, pelleted, washed with PBS and resuspended in PBS containing PI and RNase A, as previously described ([Brooke et al. 2011]). The percentage of cells in each phase of the cell cycle was subsequently quantified using an Accuri C6 Flow Cytometer (BD Biosciences, USA).
Figure 3 The thieno[2,3-b]pyridine compounds promote G2/M cell cycle arrest in PC3 cells. PC3 cells were seeded at 30% confluence for 48 h and treated with 1 μM of the compounds (97, 144, 145, 154 and 160) or DMSO for (A) 24, (B) 48 and (C) 72 h. Cells were PI stained and DNA content measured using flow cytometry. The percentage of cells in each phase was calculated and representative histograms generated using the ACCURI C6 software (BD Biosciences). Data are the mean of three independent repeats.

The test system of assay [10] is cultured human prostate tumours. Briefly: Patient-derived tumour explants, qPCR of PCNA (proliferation marker). It counts as cell-based. As to conditions: explants of four patients, 100 nM DJ160, 48 h. As for the experimental part: (§3) Explant experiments were undertaken using published methodology ([Centenera et al. 2018]). Biopsy tissue from prostate cancer patients was immediately placed in ice-cold medium straight from surgery. In the lab, tissue was dissected and seeded onto a sponge (SSP101010-32, Surgispon, Anser Medical) in 24-well plates. The explants were treated with compound 160 (100 nM) or the antiandrogen enzalutamide (10 μM) and incubated at 37°C for 48 h.
Explants were snap frozen until RNA was extracted using a Monarch RNA extraction kit (NEB), following disruption of frozen tissue utilising mechanical disruption and enzymatic digestion with proteinase K. Then, 2 μg of RNA was reverse transcribed using Precision Nanoscript2 RT Kit (Primer Design, UK). Changes in gene expression were measured using SYBR Green Fast Master Mix (Life Technologies, USA) and QuantStudio 7 Flex Real-Time PCR System (Applied Biosystems, USA). […]
Figure 7 Thieno[2,3-b]pyridine DJ160 inhibits activity in cultured human prostate tumours. […] (A) RNA was extracted and qPCR was performed to quantify the expression of PCNA, used as a marker of proliferation. (B) Samples were formalin-fixed and immunohistochemistry performed for cleaved caspase 3 and the number of cells per field counted. […]

The subject of assay [11] is PLC. The experiment in a line: PLC activity assay in treated PC3 cells. As to conditions: 24 h; for PLC activity: mean of 3 repeats ± SD, 0 μM control 0.19 ± 0.005. It counts as cell-based. How it is done: PC3 cells were grown in 10 cm dishes and treated with different concentrations of DJ160 for 24 h. Cells were collected and enzymatic activity quantified using a PLC Activity Assay Kit (Sigma Aldrich), following the manufacturer’s instructions.
as §2

The test system of assay [12] is PC3 cells. Briefly: Fluorescent imaging: multinucleation and cell size. The format is cell-based. The following applies: 1 μM, 24 h, no multinucleation without inhibitors. As for the experimental part: Cells were seeded on glass coverslips and incubated overnight before treatment with the compounds. Cells were incubated for 24 h with the thieno[2,3-b]pyridines and fixed with 2% paraformaldehyde for 15 min at RT. Cells were washed 3 times with PBS and 0.1% Triton X-100 in PBS added for 10 min at RT. The washes were repeated and cells blocked with 1% BSA in 0.5% Tween for 30 min. Primary antibody (α-alpha-tubulin, clone B-5-1-2, Sigma Aldrich, USA) was diluted in the block buffer, added to the cells and incubated for 1 h. The cells were washed 3 times with PBS containing 0.5% Tween and secondary antibody applied (anti-mouse Alexa Fluor 568, Abcam, UK). […] To calculate the percentage of cells with multinucleation, ten random fields of view were imaged per slide using low magnification (10×) and the number of cells with more than 1 nucleus counted. Alterations in cell size were quantified using Fiji ([Schindelin et al. 2012]).
Figure 5 The thieno[2,3-b]pyridine compounds promote multinucleation and lead to an increase in cell size. […] Cells were PI stained and DNA content was measured using flow cytometry. […] Confocal microscopy was performed and five random images were taken for each treatment to quantify (C) percentage multinucleation and (D) relative cell size. […]

Assay [13] relates to cultured human prostate tumours. Briefly: Patient-derived tumour explants, immunohistochemistry of cleaved caspase 3. It counts as cell-based. The following applies: explants of four patients, no/minimal apoptosis in patients 1 and 2. How it is done: as §3
The explants were formalin fixed and wax embedded. Immunohistochemistry was performed to investigate the expression of cleaved caspase 3 (Cell Signalling 9661S (1/200)) as a marker of apoptosis. Protein expression was detected using the REAL EnVision Detection System (Peroxidase/DAB, K500711-2, DAKO).
Figure 7 Thieno[2,3-b]pyridine DJ160 inhibits activity in cultured human prostate tumours. Tumours were dissected into 1 mm^3 pieces then treated with the drugs (100 nM DJ160 and 10 μM enzalutamide (ENZA)) or vehicle control (DMSO, VC) and incubated for 48 h. (A) RNA was extracted and qPCR was performed to quantify the expression of PCNA, used as a marker of proliferation. (B) Samples were formalin-fixed and immunohistochemistry performed for cleaved caspase 3 and the number of cells per field counted. Example images for patient 3 are provided (20× magnification).

Assay [14] has as its system breast cancer cell lines. As to conditions: across various breast cancer cell lines; cited from earlier work.

In the case of `Nc1c(C(=O)Nc2cccc(Cl)c2)sc2nc3c(cc12)C(=O)CCC3` [DJ97], the IC50 stood at 334 nM in assay [1] (C4-2, 72 h); 573 nM in [2] (Homo sapiens, 72 h); 482 nM in assay [3] (Homo sapiens, 72 h); 306 nM in assay [4]; 324 nM in assay [5]; 3550 nM in assay [6]. In addition, the values for the concentration for half-maximal inhibition (IC50) in assay [7] and in assay [8] were 1400 nM and 333 nM, respectively. The “IC50 (nM)” value in assay [6] is “μM range”.
Regarding `COc1cccc(NC(=O)c2sc3nc4c(cc3c2N)C(=O)CCC4)c1` [DJ144], the IC50 came out at 187 nM in assay [1] (C4-2, 72 h); 214 nM in assay [2] (Homo sapiens, 72 h); 59.4 nM in assay [3] (Homo sapiens, 72 h); 185 nM in assay [4]; 238 nM in [5]; 443 nM in [6]. Also, the results for the IC50 in assay [7] and in assay [8] were 271 nM and 150 nM, respectively. The “G2/M cell cycle arrest” value in assay [9] is reported as “most pronounced effect”.
On to `Nc1c(C(=O)Nc2cccc(Br)c2)sc2nc3c(cc12)C(=O)CCC3` [DJ145], for which the IC50 worked out at 468 nM in assay [1] (C4-2, 72 h); 673 nM in [2] (Homo sapiens, 72 h); 268 nM in assay [3] (Homo sapiens, 72 h); 499 nM in assay [4]; 708 nM in assay [5]; 4360 nM in assay [6]. Besides, the IC50 in assay [7] was found to be 1960 nM; in [8] it was 230 nM. The “IC50 (nM)” value in assay [6] is “μM range”.
In the case of `Nc1c(C(=O)Nc2cccc(Cl)c2)sc2nc3c(cc12)CCCC3` [DJ154], the IC50 was determined as 246 nM in assay [1] (C4-2, 72 h); 723 nM in assay [2] (Homo sapiens, 72 h); 452 nM in assay [3] (Homo sapiens, 72 h); 521 nM in assay [4]; 902 nM in [5]; 806 nM in assay [6]. For the same compound, the IC50 in assay [7] is 660 nM; in assay [8], 512 nM.
In the case of `Cc1c(Cl)cccc1NC(=O)c1sc2nc3c(cc2c1N)C(=O)CCC3` [DJ160], the IC50 was < 50 nM in assay [1] (C4-2, 72 h); 29 nM in assay [1]; < 50 nM in assay [2] (Homo sapiens, 72 h); 46.5 nM in [2]; 44.9 nM in assay [3]; < 50 nM in assay [3] (Homo sapiens, 72 h). Also, the half-inhibitory concentration (IC50) in assay [4] was 100 nM; in assay [5], 82.6 nM; in [6], 151 nM; in assay [7], 83.9 nM; in [8], 54 nM; in assay [14] it was > 100 nM. The “reduction of PCNA expression compared to untreated samples” value in assay [10] is given as “approximately 80%”. Also, the “PLC activity” value in assay [11] (DJ160 0.01 μM) turned out to be 0.19 ± 0.005 mol/min; in [11] (DJ160 0.1 μM), 0.17 ± 0.005 mol/min; in assay [11] (DJ160 1 μM), 0.23 ± 0.004 mol/min; in [11] (DJ160 10 μM), 0.22 ± 0.010 mol/min. Besides, in [11] (dose range), the “effect upon pan-PLC activity” value is reported as “little effect”. Also, the “percentage of cells with multinucleation” value in [12] is recorded as “more than 30%”. Besides, the “G2/M cell cycle arrest” value in [9] was “most pronounced effect”. The “cleaved caspase 3-positive cells (apoptosis)” value in [13] (100 nM DJ160, 48 h) is “increase in the percentage of cleaved caspase-positive cells in patient samples 3 and 4”.
Consider `CNC(=O)c1ccc(N2C(=S)N(c3ccc(C#N)c(C(F)(F)F)c3)C(=O)C2(C)C)cc1F` [enzalutamide, reference compound], for which the “cleaved caspase 3-positive cells (apoptosis)” value in assay [13] (10 μM enzalutamide, 48 h) is “increase in the percentage of cleaved caspase-positive cells in patient samples 3 and 4”.

Usually IC50 stands for the concentration that inhibits the measured activity by half.

These data come from paper PMC12243099, “Thieno[2,3-b]pyridine compounds potently inhibit prostate cancer growth and motility” (Endocrine Oncology, 2025).
